In brackets after ≈: the same amount, converted by molar mass. Read-outs that look alike come from different tables or passages of the source.
Legend:
Assay type in all cases: cell-based
[1] = system: Staphylococcus aureus (MSSA) ATCC10390 (strain B6); assay: MIC determination according to CLSI, Staphylococcus aureus (MSSA) ATCC10390
Source text: (§1) For example, the compounds of the present invention show antimicrobial, e.g. antibacterial, activity against gram positive bacteria, such as coagulase-positive and coagulase-negative Staphylococci, e.g. Staphylococcus aureus, Styphylococcus epidermis, Staphylococcus haemolyticus, Streptococci, e.g. Streptococcus pyogenes, Streptococcus pneumoniae, Streptococcus agalacticae, Enterococci, e.g. Enterococcus faecium and Moraxellaceae, e.g. Moraxella catarrhalis, Pasteurellaceae, e.g. Haemophilus influenzae, as well as against Mycoplasmactaceae, Chlamydiaceae, e.g. Chlamydia trachomatis, Chlamydia pneumoniae and obligatory anaerobes, e.g. Bacteroides fragilis, Clostridium difficile; in vitro in the Agar Dilution Test or Microdilution Test according to the Climical and Laboratory Standards Institute (CLSI, former National Committee for Clinical Laboratory Standards (NCCLS) 2006, Document M7-A7 Vol. 26, No. 2: “Methods for dilution Antimicrobial Susceptibility Tests for Bacteria that Grow Aerobically—Seventh Edition, Approved Standard”; and in the in vitro determination of the antibacterial activity against anaerobic bacteria according to National Committee for Clinical Laboratory Standards (NCCLS) VOL. 24, No. 2, M11-A5, Methods for Antimicrobal Susceptibility Testing of Anaerobic Bacteria; Approved Standard; Sixth Edition (2004) and in vivo in the septicaemic mouse model against Staphylococcus aureus.
(§2) The antibacterial activity expressed as minimal inhibitory concentration (MIC) was determined according to the approved standard reference recommendations of CLSI (former NCCLS).

[2] = system: Staphylococcus aureus (MSSA) ATCC29213 (strain B7); assay: MIC determination according to CLSI, Staphylococcus aureus (MSSA) ATCC29213
Source text: as §1, §2

[3] = system: Enterococcus faecalis ATCC29212 (strain B4); assay: MIC determination according to CLSI, Enterococcus faecalis ATCC29212
Source text: as §1, §2

[4] = system: Enterococcus faecalis ATCC51299 (strain B5); assay: MIC determination according to CLSI, Enterococcus faecalis ATCC51299
Source text: as §1, §2

[5] = system: Moraxella catarrhalis ATCC43618 (strain B407); assay: MIC determination according to CLSI, Moraxella catarrhalis ATCC43618
Source text: as §1, §2

[6] = system: Escherichia coli ATCC25922 (strain B1); assay: MIC determination according to CLSI, Escherichia coli ATCC25922
Source text: as §1, §2

[7] = system: Streptococcus pneumoniae ATCC49619 (strain B11); assay: MIC determination according to CLSI, Streptococcus pneumoniae ATCC49619
Source text: as §1, §2

[8] = system: Staphylococcus aureus, Enterococcus faecalis, Streptococcus pneumoniae, Moraxella catarrhalis and Escherichia coli; assay: Antibacterial activity (MIC) against the panel of clinical relevant bacterial pathogens
Protocol: as §2

[9] = Staphylococcus aureus (MSSA), ATCC10390, strain B6, read-out: MIC
[10] = Staphylococcus aureus (MSSA), ATCC29213, strain B7, read-out: MIC
[11] = ATCC29212, strain B4, read-out: MIC
[12] = ATCC51299, strain B5, read-out: MIC
[13] = ATCC43618, strain B407, read-out: MIC
[14] = ATCC25922, strain B1, read-out: MIC
[15] = ATCC49619, strain B11, read-out: MIC

| MIC [1, 9] | MIC [2, 10] | MIC [3, 11] | MIC [4, 12] | MIC [5, 13] | MIC [6, 14] | MIC [7, 15] | factor by which MICs are lower than the MICs of examples 39-41 ([8]; against at least one of the strains shown in Table 1) | SMILES | activity against the clinical relevant bacterial pathogens (in words) ([8]; in vitro, S. aureus, E. faecalis, S. pneumoniae, M. catarrhalis, E. coli) | MIC ([1]; Staphylococcus aureus) | MIC ([2]; Staphylococcus aureus) | MIC ([3]; ATCC29212) | MIC ([4]; ATCC51299) | MIC ([5]; ATCC43618) | MIC ([6]; ATCC25922) | MIC ([7]; ATCC49619) |
| --- | --- | --- | --- | --- | --- | --- | --- | --- | --- | --- | --- | --- | --- | --- | --- | --- |
| ≤ 0.0125 µg/mL | ≤ 0.0125 µg/mL | 1.6 µg/mL (≈ 2.62 µM) | 1.6 µg/mL (≈ 2.62 µM) | 0.0125 µg/mL (≈ 0.0205 µM) | 12.8 µg/mL (≈ 21 µM) | ≤ 0.0025 µg/mL | ≥ 2 | C=C[C@]1(C)C[C@@H](OC(=O)CSc2cccc(CNC(=O)[C@H]3CCCCN3)c2)[C@]2(C)C(C)CCC3(CCC(=O)C32)[C@@H](C)[C@@H]1O (stereo partly drawn) [Example 1, 14-O-[(3-{[((R)-Piperidine-2-carbonyl)-amino]-methyl}-phenylsulfanyl)-acetyl]-mutilin] | very good activity | – | – | – | – | – | – | – |
| 0.025 µg/mL (≈ 0.0516 µM) | 0.05 µg/mL (≈ 0.103 µM) | > 6.4 µg/mL | > 6.4 µg/mL | 0.0125 µg/mL (≈ 0.0258 µM) | > 6.4 µg/mL | 0.16 µg/mL (≈ 0.33 µM) | – | C=C[C@]1(C)C[C@@H](OC(=O)CSc2cccc(C)c2)[C@]2(C)C(C)CCC3(CCC(=O)C32)[C@@H](C)[C@@H]1O (stereo partly drawn) [Example 39, 14-O-[(3-Methyl-phenylsulfanyl)-acetyl]-mutilin] | – | – | – | – | – | – | – | – |
| – | – | – | – | – | – | – | – | C=C[C@]1(C)C[C@@H](OC(=O)COc2cccc(C)c2)[C@]2(C)[C@H](C)CC[C@]3(CCC(=O)[C@H]32)[C@@H](C)[C@@H]1O [Example 40, 14-O-[(3-Methyl-phenoxy)-acetyl]-mutilin] | – | 0.05 µg/mL (≈ 0.107 µM) | 0.05 µg/mL (≈ 0.107 µM) | > 6.4 µg/mL | > 6.4 µg/mL | 0.0125 µg/mL (≈ 0.0267 µM) | > 6.4 µg/mL | 0.64 µg/mL (≈ 1.37 µM) |
| – | – | – | – | – | – | – | – | CC[C@]1(C)C[C@@H](OC(=O)COc2cccc(C)c2)[C@]2(C)C(C)CCC3(CCC(=O)C32)[C@@H](C)[C@@H]1O (stereo partly drawn) [Example 41, 14-O-[(3-Methyl-phenoxy)-acetyl]-19,20-dihydromutilin] | – | 0.05 µg/mL (≈ 0.106 µM) | 0.1 µg/mL (≈ 0.212 µM) | > 6.4 µg/mL | > 6.4 µg/mL | 0.025 µg/mL (≈ 0.0531 µM) | > 6.4 µg/mL | > 0.64 µg/mL |

Source: patent US8173685B2, “Pleuromutilin derivatives and their use as antimicrobials” (Nabriva Therapeutics AG, priority 2007, dated 2012)
